Assay results as given in US20250122182A1 (Isosterix, Inc., priority 2023, published 2025).

Molecular target: Recombinant KAT6A/MOZ (488-778) protein (Homo sapiens (Human), UniProt Q92794)
Assay: KAT6A AlphaLISA Inhibition Screening Assay
Assay type: biochemical
Conditions: for inhibition at 1 µM: read-out: Average Kat6A % inhibition @ 1 μM; for inhibition at 1 µM / Average Kat6A % inhibition @ 1 μM: 1 μM test compound; for inhibition at 10 µM: read-out: Average Kat6A % inhibition @ 10 μM; for inhibition at 10 µM / Average Kat6A % inhibition @ 10 μM: 10 μM test compound
In short: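 25 nM KAT6A (488-778) pre-incubated 60 or 10 min with compound (10-point, 3-fold from 10 μM), then 400 nM acetyl-CoA and 200 nM biotin-H3(1-21) peptide added for 120 min at RT in pH 8.0 Tris buffer with 330 nM TSA. Acetylation read by AlphaLISA (anti-acetyl-lysine acceptor/streptavidin donor beads); % inhibition vs vehicle.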

Sequence of Recombinant KAT6A/MOZ (488-778) protein (Q92794 488-778): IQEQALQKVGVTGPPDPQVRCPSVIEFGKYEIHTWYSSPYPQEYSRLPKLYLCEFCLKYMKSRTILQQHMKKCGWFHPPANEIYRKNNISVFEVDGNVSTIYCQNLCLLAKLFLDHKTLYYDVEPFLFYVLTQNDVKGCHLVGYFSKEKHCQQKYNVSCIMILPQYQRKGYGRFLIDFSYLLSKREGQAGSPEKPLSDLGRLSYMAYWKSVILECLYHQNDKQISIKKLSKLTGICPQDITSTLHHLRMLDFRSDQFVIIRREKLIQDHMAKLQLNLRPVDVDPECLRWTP

For `C=C(F)C(=O)NCc1cnn(Cc2cc(OC)c3c(NS(=O)(=O)c4ccc(OC)cc4OC)noc3c2)c1` [Syn. Ex. 60, N-((1-((3-((2,4-dimethoxyphenyl)sulfonamido)-4-methoxybenzo[d]isoxazol-6-yl)methyl)-1H-pyrazol-4-yl)methyl)-2-fluoroacrylamide], the inhibition at 1 µM was 93% and the inhibition at 10 µM was 100%.

With `CCc1ccc(OCc2ccnc(OC)c2)c(S(=O)(=O)Nc2noc3cc(Cn4cc(CNC(=O)OC)cn4)cc(OC)c23)c1` [Syn. Ex. 95, methyl ((1-((3-((5-ethyl-2-((2-methoxypyridin-4-yl)methoxy)phenyl)sulfonamido)-4-methoxybenzo[d]isoxazol-6-yl)methyl)-1H-pyrazol-4-yl)methyl)carbamate] the inhibition at 1 µM was 100% and the inhibition at 10 µM was 100%.

In the case of `CCc1ccc(OCCNC(C)=O)c(S(=O)(=O)Nc2noc3cc(Cn4cc(CNC(=O)OC)cn4)cc(OC)c23)c1` [Syn. Ex. 81, methyl ((1-((3-((2-(2-acetamidoethoxy)-5-ethylphenyl)sulfonamido)-4-methoxybenzo[d]isoxazol-6-yl)methyl)-1H-pyrazol-4-yl)methyl)carbamate], the inhibition at 1 µM is reported as 91% and the inhibition at 10 µM is reported as 99%.

`C#CC(=O)N1Cc2cn(Cc3cc(OC)c4c(NS(=O)(=O)c5cc(Cl)ccc5OC)noc4c3)nc2C1` [Syn. Ex. 2, 5-chloro-2-methoxy-N-(4-methoxy-6-((5-propioloyl-5,6-dihydropyrrolo[3,4-c]pyrazol-2(4H)-yl)methyl)benzo[d]isoxazol-3-yl)benzenesulfonamide] gave an inhibition at 1 µM of 71% and an inhibition at 10 µM of 100%.

`C=C(F)C(=O)NCc1cnn(Cc2cc(OC)c3c(NS(=O)(=O)c4cc(CC)ccc4OCCC#N)noc3c2)c1` [Syn. Ex. 84, N-((1-((3-((2-(2-cyanoethoxy)-5-ethylphenyl)sulfonamido)-4-methoxybenzo[d]isoxazol-6-yl)methyl)-1H-pyrazol-4-yl)methyl)-2-fluoroacrylamide] showed an inhibition at 1 µM of 100% and an inhibition at 10 µM of 100%.

For `C=C(F)C(=O)NCc1cnn(Cc2cc3onc(NS(=O)(=O)c4cc(CC)ccc4OC)c3c3c2CCCO3)c1` [Syn. Ex. 96, N-((1-((9-((5-ethyl-2-methoxyphenyl)sulfonamido)-3,4-dihydro-2H-chromeno[8,7-d]isoxazol-5-yl)methyl)-1H-pyrazol-4-yl)methyl)-2-fluoroacrylamide], the inhibition at 1 µM was 100% and the inhibition at 10 µM was 100%.

`CCOc1cc2c(NS(=O)(=O)c3cc(CC)ccc3OC)noc2cc1Cn1cc(CNC(=O)OC)cn1` [Syn. Ex. 142, methyl ((1-((5-ethoxy-3-((5-ethyl-2-methoxyphenyl)sulfonamido)benzo[d]isoxazol-6-yl)methyl)-1H-pyrazol-4-yl)methyl)carbamate] showed an inhibition at 1 µM of 110% and an inhibition at 10 µM of 99%.

Compound `C=C(F)C(=O)NCc1cnn(Cc2cc(OC)c3c(NS(=O)(=O)c4cc(CC)ccc4OCCO)noc3c2)c1` [Syn. Ex. 113, N-((1-((3-((5-ethyl-2-(2-hydroxyethoxy)phenyl)sulfonamido)-4-methoxybenzo[d]isoxazol-6-yl)methyl)-1H-pyrazol-4-yl)methyl)-2-fluoroacrylamide] has an inhibition at 1 µM of 98% and an inhibition at 10 µM of 100%.

`CCc1ccc(OCc2ncc[nH]2)c(S(=O)(=O)Nc2noc3cc(Cn4cc(CNC(=O)OC)cn4)cc(OC)c23)c1` [Syn. Ex. 116, methyl ((1-((3-((2-((1H-imidazol-2-yl)methoxy)-5-ethylphenyl)sulfonamido)-4-methoxybenzo[d]isoxazol-6-yl)methyl)-1H-pyrazol-4-yl)methyl)carbamate] gave an inhibition at 1 µM of 100% and an inhibition at 10 µM of 100%.

Compound `COc1cc(Cn2cc(CNS(C)(=O)=O)cn2)cc2onc(NS(=O)(=O)c3ccccc3OCc3ccccc3)c12` [Syn. Ex. 37, 2-(benzyloxy)-N-(4-methoxy-6-((4-(methylsulfonamidomethyl)-1H-pyrazol-1-yl)methyl)benzo[d]isoxazol-3-yl)benzenesulfonamide] has an inhibition at 1 µM of 100% and an inhibition at 10 µM of 100%.

Compound `C=C(F)C(=O)NCc1cnn(Cc2cc(OC)c3c(NS(=O)(=O)c4cc(CC)ccc4OCc4nc[nH]n4)noc3c2)c1` [Syn. Ex. 80, N-((1-((3-((2-((1H-1,2,4-triazol-3-yl)methoxy)-5-ethylphenyl)sulfonamido)-4-methoxybenzo[d]isoxazol-6-yl)methyl)-1H-pyrazol-4-yl)methyl)-2-fluoroacrylamide] has an inhibition at 1 µM of 100% and an inhibition at 10 µM of 100%.

For `CCc1ccc(OC)c(S(=O)(=O)Nc2noc3cc(Oc4ncc(CNC(=O)OC)s4)c(OC)cc23)c1` [Syn. Ex. 149, methyl —{N}—[[2-[[3-[(5-ethyl-2-methoxy-phenyl)sulfonylamino]-5-methoxy-1,2-benzoxazol-6-yl]oxy]thiazol-5-yl]methyl]carbamate], the “Average Kat6A % inhibition @ 1 μM” value was 101% and the “Average Kat6A % inhibition @ 10 μM” value was 102%.

`C#CC(=O)NCc1ccc(Oc2cc(OC)c3c(NS(=O)(=O)c4cc(CC)ccc4OC)noc3c2)nc1` [Syn. Ex. 61, N-((6-((3-((5-ethyl-2-methoxyphenyl)sulfonamido)-4-methoxybenzo[d]isoxazol-6-yl)oxy)pyridin-3-yl)methyl)propiolamide] gave an inhibition at 1 µM of 60% and an inhibition at 10 µM of 100%.

`COc1ccc(C(C)(C)C)cc1S(=O)(=O)Nc1noc2cc(Cn3cc(CNS(C)(=O)=O)cn3)cc(OC)c12` [Syn. Ex. 33, 5-(tert-butyl)-2-methoxy-N-(4-methoxy-6-((4-(methylsulfonamidomethyl)-1H-pyrazol-1-yl)methyl)benzo[d]isoxazol-3-yl)benzenesulfonamide] showed an inhibition at 1 µM of 96% and an inhibition at 10 µM of 100%.

In the case of `CC#CC(=O)NCc1cnn(Cc2cc(OC)c3c(NS(=O)(=O)c4cc(C)c(C)cc4OC)noc3c2)c1` [Syn. Ex. 27, N-((1-((4-methoxy-3-((2-methoxy-4,5-dimethylphenyl)sulfonamido)benzo[d]isoxazol-6-yl)methyl)-1H-pyrazol-4-yl)methyl)but-2-ynamide], the inhibition at 1 µM is reported as 100% and the inhibition at 10 µM is reported as 100%.

Compound `CCc1ccc(OC)c(S(=O)(=O)Nc2noc3cc(Cn4cc(CNC(=O)OC)cn4)cc(OC)c23)c1` [Syn. Ex. 17, methyl ((1-((3-((5-ethyl-2-methoxyphenyl)sulfonamido)-4-methoxybenzo[d]isoxazol-6-yl)methyl)-1H-pyrazol-4-yl)methyl)carbamate] has an inhibition at 1 µM of 99% and an inhibition at 10 µM of 100%.

In the case of `CCc1ccc(OC)c(S(=O)(=O)Nc2noc3cc(Cn4cc(CNC(=O)C#CCO)cn4)cc(OC)c23)c1` [Syn. Ex. 49, N-((1-((3-((5-ethyl-2-methoxyphenyl)sulfonamido)-4-methoxybenzo[d]isoxazol-6-yl)methyl)-1H-pyrazol-4-yl)methyl)-4-hydroxybut-2-ynamide], the inhibition at 1 µM is reported as 94% and the inhibition at 10 µM is reported as 100%.

`COC(=O)NCc1cnn(Cc2cc(OC)c3c(NS(=O)(=O)c4cc5c(cc4OC)CCCC5)noc3c2)c1` [Syn. Ex. 139, methyl ((1-((4-methoxy-3-((3-methoxy-5,6,7,8-tetrahydronaphthalene)-2-sulfonamido)benzo[d]isoxazol-6-yl)methyl)-1H-pyrazol-4-yl)methyl)carbamate] was tested, and the “Average Kat6A % inhibition @ 1 μM” value was 119% and the “Average Kat6A % inhibition @ 10 μM” value was 114%.

`CCc1ccc(OC)c(S(=O)(=O)Nc2noc3cc(Oc4ncc(CNC(=O)OC)o4)cc(OC)c23)c1` [Syn. Ex. 100, methyl ((2-((3-((5-ethyl-2-methoxyphenyl)sulfonamido)-4-methoxybenzo[d]isoxazol-6-yl)oxy)oxazol-5-yl)methyl)carbamate] gave an inhibition at 1 µM of 92% and an inhibition at 10 µM of 100%.

`CCc1ccc(OC)c(S(=O)(=O)Nc2noc3cc(Cn4cc(CNC(=O)OC)cn4)c(F)c(OC)c23)c1` [Syn. Ex. 141, methyl ((1-((3-((5-ethyl-2-methoxyphenyl)sulfonamido)-5-fluoro-4-methoxybenzo[d]isoxazol-6-yl)methyl)-1H-pyrazol-4-yl)methyl)carbamate] gave an inhibition at 1 µM of 104% and an inhibition at 10 µM of 91%.

Compound `COc1cc(C)c(C)cc1S(=O)(=O)Nc1noc2cc(Cn3cc(CNS(C)(=O)=O)cn3)cc(OC)c12` [Syn. Ex. 20, 2-methoxy-N-(4-methoxy-6-((4-(methylsulfonamidomethyl)-1H-pyrazol-1-yl)methyl)benzo[d]isoxazol-3-yl)-4,5-dimethylbenzenesulfonamide] has an inhibition at 1 µM of 100% and an inhibition at 10 µM of 100%.

Compound `C=C(F)C(=O)NCc1cnn(Cc2cc(OC)c3c(NS(=O)(=O)c4cc(CC)ccc4OCC(=O)O)noc3c2)c1` [Syn. Ex. 67, 2-(4-ethyl-2-(N-(6-((4-((2-fluoroacrylamido)methyl)-1H-pyrazol-1-yl)methyl)-4-methoxybenzo[d]isoxazol-3-yl)sulfamoyl)phenoxy)acetic acid] has an inhibition at 1 µM of 100% and an inhibition at 10 µM of 100%.

`C#CCOc1ccc(CC)cc1S(=O)(=O)Nc1noc2cc(Cn3cc(CNC(=O)OC)cn3)cc(OC)c12` [Syn. Ex. 128, methyl ((1-((3-((5-ethyl-2-(prop-2-yn-1-yloxy)phenyl)sulfonamido)-4-methoxybenzo[d]isoxazol-6-yl)methyl)-1H-pyrazol-4-yl)methyl)carbamate] showed an inhibition at 1 µM of 101% and an inhibition at 10 µM of 100%.

In the case of `CCc1ccc(OC)c(S(=O)(=O)Nc2noc3cc(Cn4cc(CNC(=O)OC)cn4)c(OC)cc23)c1` [Syn. Ex. 137, methyl ((1-((3-((5-ethyl-2-methoxyphenyl)sulfonamido)-5-methoxybenzo[d]isoxazol-6-yl)methyl)-1H-pyrazol-4-yl)methyl)carbamate], the inhibition at 1 µM is reported as 98% and the inhibition at 10 µM is reported as 89%.

`C#CC(=O)NCc1cnn(Cc2cc(OC)c3c(NS(=O)(=O)c4cc(CC)ccc4OCC#N)noc3c2)c1` [Syn. Ex. 69, N-((1-((3-((2-(cyanomethoxy)-5-ethylphenyl)sulfonamido)-4-methoxybenzo[d]isoxazol-6-yl)methyl)-1H-pyrazol-4-yl)methyl)propiolamide] gave an inhibition at 1 µM of 96% and an inhibition at 10 µM of 99%.
